How the values were obtained:
[1] = target: Methyl-CpG-binding domain protein 4 (Homo sapiens) (UniProt O95243); settings: Compound Concentration 10.0 uM, Hit No;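 further: MBD4 activity read as fluorescence at 594 nm from cleavage and release of a quenched duplex DNA oligonucleotide, with APE1 coupled to incise the strand and raise turnover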
Description: Inhibition of MBD4 by quantifying inhibition of MBD4-mediated cleavage and dissociation of quenched duplex DNA oligonucleotides, measured as fluorescence at 594 nm. To generate a functional strand incision and increase turn-over this assay is coupled to APE1.

[2] = target: DNA-3-methyladenine glycosylase (Homo sapiens) (UniProt P29372); settings: Compound Concentration 10.0 uM, Hit No;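 further: enzyme assay where MPG cuts a quenched duplex DNA oligonucleotide probe, paired with APE1 for strand incision and turnover, read as fluorescence at 594 nm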
DNA-3-methyladenine glycosylase (Homo sapiens), sequence (P29372 whole entry): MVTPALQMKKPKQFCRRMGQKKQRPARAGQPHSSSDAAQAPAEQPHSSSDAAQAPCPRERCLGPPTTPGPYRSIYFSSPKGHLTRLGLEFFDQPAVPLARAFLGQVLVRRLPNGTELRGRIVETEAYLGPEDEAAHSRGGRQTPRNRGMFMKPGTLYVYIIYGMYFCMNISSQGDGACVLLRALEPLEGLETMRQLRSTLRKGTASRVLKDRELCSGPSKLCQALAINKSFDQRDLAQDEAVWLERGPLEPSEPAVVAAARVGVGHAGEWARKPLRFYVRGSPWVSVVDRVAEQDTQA
Description: Inhibition of MPG by quantifying inhibition of MPG-mediated cleavage and dissociation of quenched duplex DNA oligonucleotides, measured as fluorescence at 594 nm. To generate a functional strand incision and increase turn-over this assay is coupled to APE1.

[3] = target: T1, Adenine DNA glycosylase (Homo sapiens) (UniProt Q9UIF7); settings: Compound Concentration 10.0 uM, Hit No;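 further: human MUTYH activity read as 594 nm fluorescence from cleavage and release of a quenched DNA duplex, coupled with APE1 for strand incision, lower signal meaning inhibition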
T1 sequence (whole entry): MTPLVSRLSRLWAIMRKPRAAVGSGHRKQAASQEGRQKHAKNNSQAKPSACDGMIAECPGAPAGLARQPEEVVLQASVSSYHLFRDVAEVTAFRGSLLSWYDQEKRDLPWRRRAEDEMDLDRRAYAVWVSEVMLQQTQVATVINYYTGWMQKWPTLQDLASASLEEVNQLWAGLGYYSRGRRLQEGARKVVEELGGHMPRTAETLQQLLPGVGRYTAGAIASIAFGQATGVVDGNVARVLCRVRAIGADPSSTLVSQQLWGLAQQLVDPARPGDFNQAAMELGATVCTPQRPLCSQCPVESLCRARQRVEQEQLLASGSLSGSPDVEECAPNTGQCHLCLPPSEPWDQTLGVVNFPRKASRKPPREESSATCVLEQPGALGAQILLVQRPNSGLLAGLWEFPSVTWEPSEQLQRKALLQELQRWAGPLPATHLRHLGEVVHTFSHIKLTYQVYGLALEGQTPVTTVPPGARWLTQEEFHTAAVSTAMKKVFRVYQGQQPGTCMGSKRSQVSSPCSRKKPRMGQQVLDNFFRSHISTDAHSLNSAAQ
Description: Inhibition of MUTYH by quantifying inhibition of MUTYH-mediated cleavage and dissociation of quenched duplex DNA oligonucleotides, measured as fluorescence at 594 nm. To generate a functional strand incision and increase turn-over this assay is coupled to APE1.

[4] = target: Endonuclease 8-like 1 (Homo sapiens) (UniProt Q96FI4); settings: Compound Concentration 10.0 uM, Hit No;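 further: fluorescence at 594 nm from quenched duplex DNA oligonucleotides released by NEIL1 cleavage and strand separation, reported as reduction of this enzyme activity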
Endonuclease 8-like 1 (Homo sapiens), sequence (Q96FI4 whole entry): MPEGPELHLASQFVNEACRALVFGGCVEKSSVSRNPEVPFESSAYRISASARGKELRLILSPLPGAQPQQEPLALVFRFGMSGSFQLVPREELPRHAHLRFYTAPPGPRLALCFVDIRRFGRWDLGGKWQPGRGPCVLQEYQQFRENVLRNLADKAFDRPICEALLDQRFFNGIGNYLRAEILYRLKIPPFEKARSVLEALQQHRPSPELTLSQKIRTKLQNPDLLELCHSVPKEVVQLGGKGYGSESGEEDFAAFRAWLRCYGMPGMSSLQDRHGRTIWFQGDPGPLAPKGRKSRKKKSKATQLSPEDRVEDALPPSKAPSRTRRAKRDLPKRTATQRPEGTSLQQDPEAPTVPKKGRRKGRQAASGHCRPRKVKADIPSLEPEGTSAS
Description: Inhibition of NEIL1 by quantifying inhibition of NEIL1-mediated cleavage and dissociation of quenched duplex DNA oligonucleotides, measured as fluorescence at 594 nm.

[5] = target: T2, Endonuclease 8-like 2 (Homo sapiens) (UniProt Q969S2); settings: Compound Concentration 10.0 uM;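 further: fluorescence at 594 nm reports NEIL2 cutting and release of a quenched double-stranded DNA oligo substrate, reduced signal read as inhibition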
T2 sequence (whole entry): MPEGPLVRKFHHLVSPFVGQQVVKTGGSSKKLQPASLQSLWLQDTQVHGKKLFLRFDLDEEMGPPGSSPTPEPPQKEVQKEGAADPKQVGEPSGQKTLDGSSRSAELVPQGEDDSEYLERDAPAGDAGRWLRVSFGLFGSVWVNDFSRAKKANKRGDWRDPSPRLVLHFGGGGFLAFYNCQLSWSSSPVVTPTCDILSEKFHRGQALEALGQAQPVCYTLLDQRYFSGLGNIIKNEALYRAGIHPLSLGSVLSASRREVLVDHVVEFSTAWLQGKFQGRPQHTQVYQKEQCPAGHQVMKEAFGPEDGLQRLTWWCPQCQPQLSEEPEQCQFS
Description: Inhibition of NEIL2 by quantifying inhibition of NEIL2-mediated cleavage and dissociation of quenched duplex DNA oligonucleotides, measured as fluorescence at 594 nm.

[6] = target: T3, Endonuclease III-like protein 1 (Homo sapiens) (UniProt P78549); settings: Compound Concentration 10.0 uM, Hit No;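 further: enzyme assay tracking NTHL1 cutting and release of a quenched double-stranded DNA oligo substrate, read as fluorescence at 594 nm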
T3 sequence (whole entry): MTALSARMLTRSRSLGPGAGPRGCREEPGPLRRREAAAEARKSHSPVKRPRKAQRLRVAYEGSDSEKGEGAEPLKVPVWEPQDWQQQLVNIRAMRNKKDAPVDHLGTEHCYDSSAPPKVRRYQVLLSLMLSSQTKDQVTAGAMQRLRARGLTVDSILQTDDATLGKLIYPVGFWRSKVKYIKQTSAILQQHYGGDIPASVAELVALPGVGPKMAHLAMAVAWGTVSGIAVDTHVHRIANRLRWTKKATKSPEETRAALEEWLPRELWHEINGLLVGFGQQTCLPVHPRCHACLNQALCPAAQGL
Description: Inhibition of NTHL1 by quantifying inhibition of NTHL1-mediated cleavage and dissociation of quenched duplex DNA oligonucleotides, measured as fluorescence at 594 nm.

[7] = target: N-glycosylase/DNA lyase (Homo sapiens) (UniProt O15527); settings: Compound Concentration 10.0 uM, Hit No;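 further: OGG1 cleavage of a quenched duplex DNA oligonucleotide, coupled to APE1 for strand incision, read as fluorescence at 594 nm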
N-glycosylase/DNA lyase (Homo sapiens), sequence (O15527 whole entry): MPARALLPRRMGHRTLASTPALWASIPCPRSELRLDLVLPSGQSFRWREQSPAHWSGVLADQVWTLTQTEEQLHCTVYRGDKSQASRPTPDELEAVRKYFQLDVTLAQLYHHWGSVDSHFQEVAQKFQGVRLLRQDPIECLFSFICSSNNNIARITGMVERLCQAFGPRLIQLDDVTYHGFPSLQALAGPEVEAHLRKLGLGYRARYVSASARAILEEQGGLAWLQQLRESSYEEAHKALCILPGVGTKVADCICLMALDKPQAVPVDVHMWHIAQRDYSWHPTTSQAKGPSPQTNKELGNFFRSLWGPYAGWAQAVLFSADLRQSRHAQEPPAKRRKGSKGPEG
Description: Inhibition of OGG1 by quantifying inhibition of OGG1-mediated cleavage and dissociation of quenched duplex DNA oligonucleotides, measured as fluorescence at 594 nm. To generate a functional strand incision and increase turn-over this assay is coupled to APE1.

[8] = target: G/T mismatch-specific thymine DNA glycosylase (Homo sapiens) (UniProt Q13569); settings: Compound Concentration 10.0 uM, Hit No;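 further: human TDG cleavage of quenched duplex DNA oligonucleotides coupled to APE1, strand release read as fluorescence at 594 nm, inhibition of TDG activity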
G/T mismatch-specific thymine DNA glycosylase (Homo sapiens), sequence (Q13569 whole entry): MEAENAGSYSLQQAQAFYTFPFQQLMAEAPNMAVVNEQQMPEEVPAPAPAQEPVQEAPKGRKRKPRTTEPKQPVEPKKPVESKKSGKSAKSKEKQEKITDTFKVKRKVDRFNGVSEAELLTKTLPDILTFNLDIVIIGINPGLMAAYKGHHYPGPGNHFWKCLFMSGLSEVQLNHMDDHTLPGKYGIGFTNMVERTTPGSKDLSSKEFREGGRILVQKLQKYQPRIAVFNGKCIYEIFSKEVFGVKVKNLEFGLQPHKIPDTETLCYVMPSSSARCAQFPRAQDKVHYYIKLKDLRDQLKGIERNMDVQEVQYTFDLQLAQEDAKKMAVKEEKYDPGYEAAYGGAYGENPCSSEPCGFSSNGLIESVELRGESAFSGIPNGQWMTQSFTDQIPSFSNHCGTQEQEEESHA
Description: Inhibition of TDG by quantifying inhibition of TDG-mediated cleavage and dissociation of quenched duplex DNA oligonucleotides, measured as fluorescence at 594 nm. To generate a functional strand incision and increase turn-over this assay is coupled to APE1.

[9] = target: Uracil-DNA glycosylase (Homo sapiens) (UniProt P13051); settings: Compound Concentration 10.0 uM, Hit No;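 further: UNG excision on a quenched double-stranded DNA oligo probe, with APE1 added for strand incision and turnover, read as fluorescence at 594 nm as strands separate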
Uracil-DNA glycosylase (Homo sapiens), sequence (P13051 whole entry): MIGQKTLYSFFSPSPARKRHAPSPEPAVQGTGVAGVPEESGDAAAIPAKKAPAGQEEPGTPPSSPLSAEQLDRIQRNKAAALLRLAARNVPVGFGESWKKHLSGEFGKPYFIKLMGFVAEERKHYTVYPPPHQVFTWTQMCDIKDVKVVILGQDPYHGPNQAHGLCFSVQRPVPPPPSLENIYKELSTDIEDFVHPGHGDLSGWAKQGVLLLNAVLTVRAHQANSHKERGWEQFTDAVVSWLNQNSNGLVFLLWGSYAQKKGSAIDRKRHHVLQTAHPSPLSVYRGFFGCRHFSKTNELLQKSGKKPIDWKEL
Description: Inhibition of UNG by quantifying inhibition of UNG-mediated cleavage and dissociation of quenched duplex DNA oligonucleotides, measured as fluorescence at 594 nm. To generate a functional strand incision and increase turn-over this assay is coupled to APE1.

Methyl-CpG-binding domain protein 4 (Homo sapiens), sequence (O95243 whole entry, the tested form may be a part): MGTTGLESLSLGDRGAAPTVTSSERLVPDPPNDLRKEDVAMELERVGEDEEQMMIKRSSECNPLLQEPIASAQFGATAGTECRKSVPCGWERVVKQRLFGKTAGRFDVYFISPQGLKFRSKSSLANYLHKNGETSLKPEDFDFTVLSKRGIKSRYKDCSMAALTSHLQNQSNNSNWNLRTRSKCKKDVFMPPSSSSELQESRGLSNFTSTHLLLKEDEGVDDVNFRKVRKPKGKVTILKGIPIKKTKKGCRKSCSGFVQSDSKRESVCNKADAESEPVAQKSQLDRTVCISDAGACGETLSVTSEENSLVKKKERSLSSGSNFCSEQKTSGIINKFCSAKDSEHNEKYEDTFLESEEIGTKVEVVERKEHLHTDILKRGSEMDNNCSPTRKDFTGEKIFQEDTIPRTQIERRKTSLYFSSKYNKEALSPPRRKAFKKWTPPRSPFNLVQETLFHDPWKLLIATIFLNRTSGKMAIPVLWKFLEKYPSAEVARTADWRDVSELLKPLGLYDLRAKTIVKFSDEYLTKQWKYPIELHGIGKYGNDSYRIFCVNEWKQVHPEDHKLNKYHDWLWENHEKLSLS

## CCNC(=O)[C@H]1O[C@@H](n2cnc3c(N)nc(NCCc4ccc(CCC(=O)O)cc4)nc32)[C@H](O)[C@@H]1O
[1]
  inhibition: 17.2%
[2]
  inhibition: -2.22%
[3]
  inhibition: 11.8%
[4]
  inhibition: 3.42%
[5]; Hit No
  inhibition: -6.46%
[6]
  inhibition: 1.39%
[7]
  inhibition: -9.97%
[8]
  inhibition: 0.161%
[9]
  inhibition: -6.16%

## Nc1nc(Nc2ccccc2)nc2c1ncn2[C@@H]1O[C@H](CO)[C@@H](O)[C@H]1O
[1]
  inhibition: 11.6%
[2]
  inhibition: -7.65%
[3]
  inhibition: -1.27%
[4]
  inhibition: -6.51%
[6]
  inhibition: 1.39%
[7]
  inhibition: 6.96%
[8]
  inhibition: 10.5%
[9]
  inhibition: -5.2%

## Clc1ccc(C2CC3CCC2N3)cn1 (centres undefined)
[1]
  inhibition: 11.8%
[2]
  inhibition: -6.44%
[3]
  inhibition: -3.17%
[4]
  inhibition: -1.03%
[5]; Hit No
  inhibition: -3.41%
[6]
  inhibition: 7.17%
[7]
  inhibition: -8.75%
[8]
  inhibition: 20.8%
[9]
  inhibition: -9.39%

## C[S+]([O-])c1ccc(-c2nc(-c3ccc(F)cc3)c(-c3ccncc3)[nH]2)cc1 (centres undefined)
[1]
  inhibition: 16.5%
[2]
  inhibition: 10.5%
[3]
  inhibition: 13.8%
[4]
  inhibition: -8.51%
[5]; Hit No
  inhibition: -0.483%
[6]
  inhibition: 15.1%
[7]
  inhibition: 6.37%
[8]
  inhibition: 17.7%
[9]
  inhibition: -3.45%

## COc1cc2nc(N(C)CCCNC(=O)C3CCCO3)nc(N)c2cc1OC (centres undefined)
[1]
  inhibition: 25.4%
[2]
  inhibition: 21.4%
[3]
  inhibition: 34.2%
[4]
  inhibition: -3.84%
[5]; Hit Yes
  inhibition: 32.3%
[6]
  inhibition: 27.8%
[7]
  inhibition: -9.24%
[8]
  inhibition: 16.1%
[9]
  inhibition: -4.94%

## CCCN[C@H]1CCc2nc(N)sc2C1
[1]
  inhibition: 9.06%
[2]
  inhibition: -0.406%
[3]
  inhibition: 13.4%
[4]
  inhibition: -3.55%
[6]
  inhibition: 22%
[7]
  inhibition: -6.43%
[8]
  inhibition: 19.3%
[9]
  inhibition: -5.95%

## CN1CCc2cc(Cl)c(O)cc2[C@@H](c2ccccc2)C1
[1]
  inhibition: 14.5%
[2]
  inhibition: 10.9%
[3]
  inhibition: 14.8%
[4]
  inhibition: -6.51%
[5]; Hit No
  inhibition: 3.22%
[6]
  inhibition: 4.7%
[7]
  inhibition: -2.12%
[8]
  inhibition: 3.73%
[9]
  inhibition: -3.84%

## Cc1ccccc1C#Cc1ccc(CCC(=O)O)cc1
[1]
  inhibition: 11.2%
[2]
  inhibition: 10.7%
[3]
  inhibition: 12.8%
[4]
  inhibition: -4.44%
[5]; Hit No
  inhibition: 1.69%
[6]
  inhibition: 6.35%
[7]
  inhibition: 8.7%
[8]
  inhibition: 14.4%
[9]
  inhibition: -2.61%

## NCCCCN(Cc1nc2ccccc2[nH]1)[C@H]1CCCc2cccnc21
[1]
  inhibition: -9.01%
[2]
  inhibition: -6.17%
[3]
  inhibition: 5.47%
[4]
  inhibition: 10.7%
[5]; Hit No
  inhibition: 6.78%
[6]
  inhibition: -0.258%
[7]
  inhibition: -6.41%
[8]
  inhibition: 0.598%
[9]
  inhibition: -4.22%

## O=C(O)CCCCCC[C@H]1C(=O)NC(=O)N1CCC(O)C1CCCCC1 (some centres undefined)
[1]
  inhibition: 9.44%
[2]
  inhibition: -5.01%
[3]
  inhibition: 39.4%
[4]
  inhibition: -4.58%
[5]; Hit No
  inhibition: -1.37%
[6]
  inhibition: 23.7%
[7]
  inhibition: -6.34%
[8]
  inhibition: 11%
[9]
  inhibition: -5.39%

## c1ccc(Cn2c(N3CCNCC3)nc3ccccc32)cc1
[1]
  inhibition: -1.45%
[2]
  inhibition: 2.45%
[3]
  inhibition: 0.413%
[4]
  inhibition: 3.42%
[5]; Hit No
  inhibition: -2.13%
[6]
  inhibition: 25.3%
[7]
  inhibition: -7.05%
[8]
  inhibition: -3.94%
[9]
  inhibition: -7.26%

## CCCN(CCC)[C@@H]1CCc2ccc3[nH]c(C#N)cc3c2C1
[1]
  inhibition: 35.8%
[2]
  inhibition: 27.5%
[3]
  inhibition: 46.8%
[4]
  inhibition: -4.73%
[5]; Hit No
  inhibition: 9.08%
[6]
  inhibition: -5.21%
[7]
  inhibition: 5.74%
[8]
  inhibition: 30%
[9]
  inhibition: -7.96%

## O=C(Nc1ccc(Cl)cc1)N[C@@H](Cc1ccccc1)C(=O)N1CCCCC1
[1]
  inhibition: 27.2%
[2]
  inhibition: 30.7%
[3]
  inhibition: 13.5%
[4]
  inhibition: 0.898%
[5]; Hit No
  inhibition: -3.15%
[6]
  inhibition: 17.9%
[7]
  inhibition: -1.34%
[8]
  inhibition: 22.9%
[9]
  inhibition: -3.64%

## CCCN(CCc1cccs1)[C@H]1CCc2c(O)cccc2C1
[1]
  inhibition: 27.8%
[2]
  inhibition: 14.7%
[3]
  inhibition: 14.9%
[4]
  inhibition: -8.88%
[5]; Hit No
  inhibition: -1.88%
[6]
  inhibition: 18.7%
[7]
  inhibition: -7.03%
[8]
  inhibition: 8.18%
[9]
  inhibition: -4.64%

## CC(C)C[C@H](NC(=O)[C@H](CC(N)=O)NC(=O)[C@@H]1CCCN1C(=O)[C@@H](N)C(C)C)C(=O)N1CCC[C@H]1C(=O)N[C@@H](CCC(N)=O)C(=O)N[C@@H](CCCNC(=N)N)C(=O)N[C@@H](Cc1ccccc1)C(N)=O
[1]
  inhibition: 7.14%
[2]
  inhibition: 2.54%
[3]
  inhibition: -3.17%
[4]
  inhibition: 5.49%
[5]; Hit No
  inhibition: 4.75%
[6]
  inhibition: 17.1%
[7]
  inhibition: -4.66%
[8]
  inhibition: 4.58%
[9]
  inhibition: -4.09%

## Cc1cc(NC(=O)NCCN2CCC(O)(Cc3ccccc3)CC2)c2ccccc2n1
[1]
  inhibition: 28.9%
[2]
  inhibition: -4.68%
[3]
  inhibition: 17.8%
[5]; Hit No
  inhibition: -1.88%
[6]
  inhibition: -6.04%
[7]
  inhibition: -6.59%
[8]
  inhibition: 11.4%
[9]
  inhibition: -0.672%

## Cc1nccn1CC1CCc2c(c3ccccc3n2C)C1=O (centres undefined)
[1]
  inhibition: 17%
[2]
  inhibition: 13.8%
[3]
  inhibition: 19%
[4]
  inhibition: 6.23%
[6]
  inhibition: 22%
[7]
  inhibition: -7.85%
[8]
  inhibition: 0.598%
[9]
  inhibition: -9.34%

## CN(C)CCn1cc(S(=O)(=O)c2cccc(F)c2)c2cccnc21
[1]
  inhibition: 7%
[2]
  inhibition: 4.26%
[3]
  inhibition: 1.09%
[4]
  inhibition: -6.66%
[6]
  inhibition: 10.5%
[7]
  inhibition: -9.57%
[8]
  inhibition: 2.84%
[9]
  inhibition: -6.74%

## CCCCC/C=C\C/C=C\C/C=C\C/C=C\CCCC(=O)OC(CO)CO
[1]
  inhibition: 28.4%
[2]
  inhibition: 3.34%
[3]
  inhibition: 14.2%
[4]
  inhibition: 4.39%
[5]; Hit No
  inhibition: 12%
[6]
  inhibition: 9.99%
[7]
  inhibition: 1.41%
[8]
  inhibition: 27%
[9]
  inhibition: -9.11%

## Cn1c(=O)n(CCCO)c(=O)c2c1nc(Oc1cccc(Cl)c1)n2Cc1ccc(Cl)cc1
[1]
  inhibition: 23.2%
[2]
  inhibition: 11.6%
[3]
  inhibition: 15.9%
[4]
  inhibition: 2.53%
[6]
  inhibition: 12.1%
[7]
  inhibition: -1.16%
[8]
  inhibition: 8.76%
[9]
  inhibition: 0.363%

## CS(=O)(=O)Nc1c(O)ccc2c1CCCC2C1=NCCN1 (centres undefined)
[1]
  inhibition: 17.6%
[2]
  inhibition: 2.87%
[3]
  inhibition: 23.1%
[4]
  inhibition: 2.08%
[6]
  inhibition: 13.8%
[7]
  inhibition: -9.24%
[8]
  inhibition: -0.654%
[9]
  inhibition: -0.201%

## CN1CCN2c3ccccc3Cc3ccccc3C2C1 (centres undefined)
[1]
  inhibition: 11.7%
[2]
  inhibition: 9.97%
[3]
  inhibition: 1.87%
[4]
  inhibition: -1.32%
[6]
  inhibition: -6.86%
[7]
  inhibition: -6.17%
[8]
  inhibition: 1.8%
[9]
  inhibition: -6.73%

## O=C(O)CCC/C=C\C[C@H]1C(=O)C[C@@H](O)[C@@H]1/C=C/[C@@H](O)CCc1ccccc1
[1]
  inhibition: 13.3%
[2]
  inhibition: -3.36%
[3]
  inhibition: 15.1%
[4]
  inhibition: -9.47%
[6]
  inhibition: 14.6%
[7]
  inhibition: -5.63%
[8]
  inhibition: 20.6%
[9]
  inhibition: -6.21%

## COc1cc(C(C)C)c(Oc2cnc(NC(CO)CO)nc2N)cc1I
[1]
  inhibition: -6.99%
[2]
  inhibition: -3.99%
[3]
  inhibition: 2%
[4]
  inhibition: -4.73%
[6]
  inhibition: 6.35%
[7]
  inhibition: -8.24%
[8]
  inhibition: -1.74%
[9]
  inhibition: -4.17%

## O=c1ccc2c(OCCCCOc3ccccc3)c3ccoc3cc2o1
[1]
  inhibition: 11.1%
[2]
  inhibition: 29.9%
[3]
  inhibition: 3.71%
[4]
  inhibition: -4.29%
[6]
  inhibition: 3.87%
[7]
  inhibition: 3.75%
[8]
  inhibition: -7.24%
[9]
  inhibition: -5.58%

From ChEMBL document CHEMBL5665443, “Enzyme Inhibitor Single Concentration assay results for EUbOPEN Chemogenomics Library” (2024)
